Test results reported in patent US20240368163A1, “COMPOUNDS AND METHODS FOR MODULATING SPLICING” (REMIX THERAPEUTICS INC., priority 2021, published 2024).
pIC50: −log10 of the molar value.

How the values were obtained:
Type in all cases: cell-based, human
Target C = experiment: Splicing RT-qPCR panel, Target C canonical junction (CJ) mRNA; details: Homo sapiens, RT-qPCR panel, canonical junction mRNA; compound concentration having 50% response in CJ decrease; read-out: Target C IC50 (decrease in CJ mRNA levels)
Method in brief: (§1)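 A673 or K562 cells treated 24 h at 37 °C with 11-point 3-fold dilutions, top 10 uM, DMSO ≤0.25%. Lysates read by RT-qPCR for CJ and AJ isoforms, normalized to GAPDH, GUSB or PPIA; ΔΔCt vs DMSO converted to RQ, then percent response.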

MYB = experiment: HiBiT protein abundance assay, MYB; details: Homo sapiens, K562, 24 h, Table 13A, modified K562 cells
Method in brief: (§2)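 HiBiT knock-in K562, 10000 cells/well, 24 h cpd at 37 °C/5% CO2; 10-pt 3-fold series from 10 μM final; DMSO ≤0.25%. Lytic detection, luminescence read. 4PL fit → IC50 vs DMSO control; unmodified K562 = baseline.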

SMN2 = experiment: Splicing RT-qPCR panel, SMN2 canonical junction (CJ) mRNA; details: Homo sapiens, RT-qPCR panel, canonical junction mRNA; compound concentration having 50% response in CJ decrease; read-out: SMN2 IC50 (decrease in CJ mRNA levels)
Method in brief: as §1

HTT [1] = experiment: Splicing RT-qPCR assay, HTT mRNA canonical junction (CJ) and alternative junction (AJ); details: Homo sapiens; for AC50: increase in AJ mRNA
Method in brief: as §1

HTT [2] = experiment: HiBiT protein abundance assay, HTT; details: Homo sapiens, K562, 24 h, Table 13A, modified K562 cells
Method in brief: as §2

[3] = 24 h, A673 or K562 cells, 24 hours treatment, RT-qPCR
[4] = RT-qPCR panel, canonical junction mRNA, compound concentration having 50% response in CJ decrease, read-out: HTT IC50 (decrease in CJ mRNA levels)
[5] = 24 h, decrease in CJ mRNA, A673 or K562 cells, 24 hours treatment, RT-qPCR, read-out: HTT CJ IC50

Compound | pIC50 (Target C) | pIC50 (MYB) | pIC50 (SMN2) | AC50 (HTT [1]; [3]) [nM] | pIC50 (HTT [1]; [4]) | pIC50 (HTT [2]) | pIC50 (HTT [1]; [5])
CN(c1ccc(-c2cc(F)c(-c3cn[nH]c3)c3cn[nH]c23)nn1)[C@@H]1C[C@H]2CC(F)(F)[C@@H](C1)N2 (stereo in doubt) [Compound 378, 6,6-difluoro-N-{6-[5-fluoro-4-(1H-pyrazol-4-yl)-1H-indazol-7-yl]pyridazin-3-yl}-N-methyl-8-azabicyclo[3.2.1]octan-3-amine] | 6.00 to 7.00 | 6.00 to 7.00 | > 7.00 | < 100 | > 7.00 | > 7.00 | –
CN(c1ccc(-c2ccc(-c3cn[nH]c3)c3ncsc23)nn1)[C@@H]1C[C@H]2CC(F)(F)[C@@H](C1)N2 (stereo in doubt) [Compound 379, 6,6-difluoro-N-methyl-N-{6-[4-(1H-pyrazol-4-yl)-1,3-benzothiazol-7-yl]pyridazin-3-yl}-8-azabicyclo [3.2.1]octan-3-amine] | 6.00 to 7.00 | 6.00 to 7.00 | > 7.00 | < 100 | > 7.00 | > 7.00 | –
CN(c1ccc(-c2ccc(-c3cn[nH]c3)c3cn[nH]c23)nn1)[C@@H]1C[C@H]2CC[C@@H](C1)N2 [Compound 104] | 6.00 to 7.00 | 6.00 to 7.00 | > 7.00 | 1000 to 10000 | 6.00 to 7.00 | > 7.00 | 6.00 to 7.00
CN(c1ccc(-c2ccc(-n3cccn3)c3cn[nH]c23)nn1)[C@@H]1C[C@H]2CC[C@@H](C1)N2 [Compound 105] | > 7.00 | > 7.00 | > 7.00 | 100 to 1000 | > 7.00 | > 7.00 | –
CN(c1ccc(-c2ccc(-c3cn[nH]c3)c3ncsc23)nn1)C1CC(C)(C)NC(C)(C)C1 [Compound 132] | 6.00 to 7.00 | 6.00 to 7.00 | > 7.00 | 100 to 1000 | 6.00 to 7.00 | 6.00 to 7.00 | 6.00 to 7.00
CN(c1ccc(-c2ccc(-c3cn[nH]c3)c3cn[nH]c23)nn1)C1CC(C)(C)NC(C)(C)C1 [Compound 137] | 5.00 to 6.00 | 6.00 to 7.00 | 6.00 to 7.00 | 100 to 1000 | 6.00 to 7.00 | 6.00 to 7.00 | 6.00 to 7.00
CN(c1ccc(-c2ccc(-c3ccc(=O)n(C)c3)c3scnc23)nn1)C1CC(C)(C)NC(C)(C)C1 [Compound 178] | < 5.00 | 5.00 to 6.00 | < 5.00 | > 10000 | < 5.00 | < 5.00 | < 5.00
CC1(C)CC(Oc2ccc(-c3ccc(-c4cn[nH]c4)c4ncsc34)nn2)CCN1 (stereo not drawn) [Compound 182] | 5.00 to 6.00 | 6.00 to 7.00 | 6.00 to 7.00 | 1000 to 10000 | 5.00 to 6.00 | > 7.00 | 5.00 to 6.00
c1nc2c(-c3cn[nH]c3)ccc(-c3ccc(OC4CCNCC4)nn3)c2s1 [Compound 183] | 6.00 to 7.00 | 6.00 to 7.00 | 6.00 to 7.00 | 100 to 1000 | 6.00 to 7.00 | > 7.00 | 6.00 to 7.00
c1nc2c(-c3cn[nH]c3)ccc(-c3ccc(O[C@@H]4C[C@H]5CC[C@@H](C4)N5)nn3)c2s1 [Compound 184] | 6.00 to 7.00 | 6.00 to 7.00 | > 7.00 | < 100 | 6.00 to 7.00 | > 7.00 | 6.00 to 7.00
CC1(C)CC(Nc2ccc(-c3ccc(-c4cn[nH]c4)c4ncsc34)nn2)CC(C)(C)N1 [Compound 186] | 6.00 to 7.00 | 6.00 to 7.00 | > 7.00 | < 100 | > 7.00 | > 7.00 | –
c1nc2c(-c3cn[nH]c3)ccc(-c3ccc(N[C@@H]4C[C@H]5CC[C@@H](C4)N5)nn3)c2s1 [Compound 202] | 6.00 to 7.00 | 6.00 to 7.00 | > 7.00 | < 100 | > 7.00 | > 7.00 | –
CCN(c1ccc(C2=CC=C(c3cn[nH]c3)C3N=CSC23)nn1)[C@@H]1C[C@H]2CC[C@@H](C1)N2 (stereo partly drawn) [Compound 203] | 6.00 to 7.00 | > 7.00 | > 7.00 | 100 to 1000 | 6.00 to 7.00 | > 7.00 | 6.00 to 7.00
CN(c1ccc(-c2ccc(-c3cn[nH]c3)c3ncsc23)nn1)[C@H]1C[C@]2(C)CC[C@](C)(C1)N2 [Compound 204] | > 7.00 | > 7.00 | > 7.00 | < 100 | > 7.00 | > 7.00 | –
[2H]C([2H])([2H])N(c1ccc(-c2ccc(-c3cn[nH]c3)c3ncsc23)nn1)[C@@H]1C[C@H]2CC[C@@H](C1)N2 [Compound 210] | > 7.00 | > 7.00 | > 7.00 | < 100 | > 7.00 | > 7.00 | –
CN(c1ccc(-c2ccc(-c3cn[nH]c3)c3ncsc23)nn1)[C@@H]1C[C@H]2CC[C@@H](C1)N2 [Compound 213] | > 7.00 | > 7.00 | > 7.00 | < 100 | > 7.00 | > 7.00 | –
c1nc2c(-c3cn[nH]c3)ccc(-c3ccc(N[C@@H]4C[C@H]5CCC[C@@H](C4)N5)nn3)c2s1 [Compound 215] | > 7.00 | > 7.00 | > 7.00 | < 100 | > 7.00 | > 7.00 | –
Fc1cc(-c2ccc(O[C@@H]3C[C@H]4CC[C@@H](C3)N4)nn2)c2[nH]ncc2c1-c1cn[nH]c1 [Compound 216] | 6.00 to 7.00 | > 7.00 | > 7.00 | < 100 | > 7.00 | > 7.00 | –
CN(c1ccc(-c2ccc(-c3cn[nH]c3)c3ncsc23)nn1)[C@@H]1C[C@H]2CCC[C@@H](C1)N2 [Compound 226] | > 7.00 | > 7.00 | > 7.00 | < 100 | > 7.00 | > 7.00 | –
[2H]C([2H])([2H])N(c1ccc(-c2ccc(-c3cn[nH]c3)c3ncsc23)nn1)[C@@H]1C[C@H]2CCC[C@@H](C1)N2 [Compound 227] | > 7.00 | > 7.00 | > 7.00 | < 100 | > 7.00 | > 7.00 | –
CCN(c1ccc(-c2ccc(-c3cn[nH]c3)c3ncsc23)nn1)[C@@H]1C[C@H]2CCC[C@@H](C1)N2 [Compound 228] | > 7.00 | > 7.00 | > 7.00 | 100 to 1000 | > 7.00 | > 7.00 | –
CN(c1ccc(-c2ccc(-c3cnn(C)c3)c3cn[nH]c23)nn1)C1CCNCC1 [Compound 242] | < 5.00 | 5.00 to 6.00 | 5.00 to 6.00 | > 10000 | < 5.00 | 5.00 to 6.00 | < 5.00
CN(c1ccc(-c2cc(F)c(-c3cnn(C)c3)c3cn[nH]c23)nn1)[C@@H]1C[C@H]2CC[C@@H](C1)N2 [Compound 291] | > 7.00 | > 7.00 | > 7.00 | < 100 | > 7.00 | > 7.00 | –
